Like-named read-outs stand apart in the source and are kept apart here.
Tested on: panel of 55 breast cancer cell lines
Assay: Cell growth inhibition assay (Cell Titer Glo, 72 h, 9 doses; GI50, TGI, LC50)
Assay type: cell-based, human

## Nc1nc2[nH]cc(CCc3ccc(C(=O)N[C@@H](CCC(=O)O)C(=O)O)cc3)c2c(=O)[nH]1 [Pemetrexed]
Homo sapiens, AU565, cell line AU565, read-out: GI50 (converted)
  GI50: 2950 µM
Homo sapiens, BT-474, cell line BT474, read-out: GI50 (converted)
  GI50: 2950 µM
Homo sapiens, BT-483, cell line BT483, read-out: GI50 (converted)
  GI50: 2950 µM
Homo sapiens, BT-549, cell line BT549, read-out: GI50 (converted)
  GI50: 2950 µM
Homo sapiens, CAMA-1, CAMA1 cell line, censored GI50 values, read-out: GI50 (converted)
  GI50: 1480 µM
Homo sapiens, CAMA-1, cell line CAMA1, read-out: GI50 (converted)
  GI50: 1480 µM
Homo sapiens, HCC38, cell line HCC38, read-out: GI50 (converted)
  GI50: 2950 µM
Homo sapiens, HCC70, cell line HCC70, read-out: GI50 (converted)
  GI50: 2950 µM
Homo sapiens, HCC202, HCC202 cell line, censored GI50 values, read-out: GI50 (converted)
  GI50: 0.0209 µM
Homo sapiens, HCC202, cell line HCC202, read-out: GI50 (converted)
  GI50: 0.0209 µM
Homo sapiens, HCC1143, cell line HCC1143, read-out: GI50 (converted)
  GI50: 2950 µM
Homo sapiens, HCC1187, cell line HCC1187, read-out: GI50 (converted)
  GI50: 2950 µM
Homo sapiens, HCC1419, cell line HCC1419, read-out: GI50 (converted)
  GI50: 2950 µM
Homo sapiens, HCC1428, cell line HCC1428, read-out: GI50 (converted)
  GI50: 2950 µM
Homo sapiens, HCC1500, HCC1500 cell line, censored GI50 values, read-out: GI50 (converted)
  GI50: 0.501 µM
Homo sapiens, HCC1500, cell line HCC1500, read-out: GI50 (converted)
  GI50: 0.501 µM
Homo sapiens, HCC1806, HCC1806 cell line, censored GI50 values, read-out: GI50 (converted)
  GI50: 1480 µM
Homo sapiens, HCC1806, cell line HCC1806, read-out: GI50 (converted)
  GI50: 1480 µM
Homo sapiens, HCC1937, HCC1937 cell line, censored GI50 values, read-out: GI50 (converted)
  GI50: 155 µM
Homo sapiens, HCC1937, cell line HCC1937, read-out: GI50 (converted)
  GI50: 155 µM
Homo sapiens, HCC1954, HCC1954 cell line, censored GI50 values, read-out: GI50 (converted)
  GI50: 0.214 µM
Homo sapiens, HCC1954, cell line HCC1954, read-out: GI50 (converted)
  GI50: 0.214 µM
Homo sapiens, LY2 cell line, censored GI50 values, read-out: GI50 (converted)
  GI50: 0.468 µM
Homo sapiens, MCF7, cell line MCF7, read-out: GI50 (converted)
  GI50: 2950 µM
Homo sapiens, MDA-MB-157, cell line MDAMB157, read-out: GI50 (converted)
  GI50: 2950 µM
Homo sapiens, MDA-MB-361, MDAMB361 cell line, censored GI50 values, read-out: GI50 (converted)
  GI50: 0.49 µM
Homo sapiens, MDA-MB-361, cell line MDAMB361, read-out: GI50 (converted)
  GI50: 0.49 µM
Homo sapiens, MDA-MB-436, cell line MDAMB436, read-out: GI50 (converted)
  GI50: 2950 µM
Homo sapiens, MDA-MB-453, MDAMB453 cell line, censored GI50 values, read-out: GI50 (converted)
  GI50: 33.9 µM
Homo sapiens, MDA-MB-453, cell line MDAMB453, read-out: GI50 (converted)
  GI50: 33.9 µM
Homo sapiens, MDA-MB-468, MDAMB468 cell line, censored GI50 values, read-out: GI50 (converted)
  GI50: 1480 µM
Homo sapiens, MDA-MB-468, cell line MDAMB468, read-out: GI50 (converted)
  GI50: 1480 µM
Homo sapiens, SK-BR-3, SKBR3 cell line, censored GI50 values, read-out: GI50 (converted)
  GI50: 1480 µM
Homo sapiens, SK-BR-3, cell line SKBR3, read-out: GI50 (converted)
  GI50: 1480 µM
Homo sapiens, SUM52PE, cell line SUM52PE, read-out: GI50 (converted)
  GI50: 2950 µM
Homo sapiens, SUM185PE, cell line SUM185PE, read-out: GI50 (converted)
  GI50: 2950 µM
Homo sapiens, T47D, cell line T47D, read-out: GI50 (converted)
  GI50: 2950 µM
Homo sapiens, UACC-812, cell line UACC812, read-out: GI50 (converted)
  GI50: 2950 µM
Homo sapiens, ZR-75-1, ZR751 cell line, censored GI50 values, read-out: GI50 (converted)
  GI50: 204 µM
Homo sapiens, ZR-75-1, cell line ZR751, read-out: GI50 (converted)
  GI50: 204 µM
Homo sapiens, cell line HCC2185, read-out: GI50 (converted)
  GI50: 2950 µM
Homo sapiens, cell line HCC3153, read-out: GI50 (converted)
  GI50: 2950 µM
Homo sapiens, cell line LY2, read-out: GI50 (converted)
  GI50: 0.468 µM
Homo sapiens, cell line MDAMB134V, read-out: GI50 (converted)
  GI50: 2950 µM
Homo sapiens, cell line SUM1315MO, read-out: GI50 (converted)
  GI50: 2950 µM

## Cc1cc(C(=O)N2CCN(c3cccc(Cl)c3)CC2)n(-c2ccccc2)n1 [XRP44X]
AU565 cell line, censored GI50 values, value is the negative log10 of mol/L
  GI50: 6.35
BT20 cell line, censored GI50 values, value is the negative log10 of mol/L
  GI50: 5.29
BT474 cell line, censored GI50 values, value is the negative log10 of mol/L
  GI50: 5.34
BT483 cell line, censored GI50 values, value is the negative log10 of mol/L
  GI50: 4.18
CAMA1 cell line, censored GI50 values, value is the negative log10 of mol/L
  GI50: 6.27
HCC38 cell line, censored GI50 values, value is the negative log10 of mol/L
  GI50: 5.85
HCC70 cell line, censored GI50 values, value is the negative log10 of mol/L
  GI50: 5.98
HCC1187 cell line, censored GI50 values, value is the negative log10 of mol/L
  GI50: 6.23
HCC1428 cell line, censored GI50 values, value is the negative log10 of mol/L
  GI50: 5.85
HCC1500 cell line, censored GI50 values, value is the negative log10 of mol/L
  GI50: 5.74
HCC1806 cell line, censored GI50 values, value is the negative log10 of mol/L
  GI50: 5.92
HCC1954 cell line, censored GI50 values, value is the negative log10 of mol/L
  GI50: 6.30
HCC2185 cell line, censored GI50 values, value is the negative log10 of mol/L
  GI50: 6.63
HCC3153 cell line, censored GI50 values, value is the negative log10 of mol/L
  GI50: 5.95
LY2 cell line, censored GI50 values, value is the negative log10 of mol/L
  GI50: 6.08
MCF7 cell line, censored GI50 values, value is the negative log10 of mol/L
  GI50: 6.40
MDAMB134VI cell line, censored GI50 values, value is the negative log10 of mol/L
  GI50: 6.21
MDAMB175VII cell line, censored GI50 values, value is the negative log10 of mol/L
  GI50: 5.44
MDAMB361 cell line, censored GI50 values, value is the negative log10 of mol/L
  GI50: 6.06
MDAMB415 cell line, censored GI50 values, value is the negative log10 of mol/L
  GI50: 6.30
MDAMB436 cell line, censored GI50 values, value is the negative log10 of mol/L
  GI50: 5.47
MDAMB453 cell line, censored GI50 values, value is the negative log10 of mol/L
  GI50: 6.20
MDAMB468 cell line, censored GI50 values, value is the negative log10 of mol/L
  GI50: 5.93
SKBR3 cell line, censored GI50 values, value is the negative log10 of mol/L
  GI50: 5.58
SUM52PE cell line, censored GI50 values, value is the negative log10 of mol/L
  GI50: 6.06
SUM149PT cell line, censored GI50 values, value is the negative log10 of mol/L
  GI50: 5.63
SUM159PT cell line, censored GI50 values, value is the negative log10 of mol/L
  GI50: 6.16
SUM1315MO2 cell line, censored GI50 values, value is the negative log10 of mol/L
  GI50: 6.11
T47D cell line, censored GI50 values, value is the negative log10 of mol/L
  GI50: 5.29
UACC812 cell line, censored GI50 values, value is the negative log10 of mol/L
  GI50: 6.30
ZR75B cell line, censored GI50 values, value is the negative log10 of mol/L
  GI50: 5.90
ZR751 cell line, censored GI50 values, value is the negative log10 of mol/L
  GI50: 5.90
Cell line AU565, value is the negative log10 of mol/L
  GI50: 6.35
Cell line BT20, value is the negative log10 of mol/L
  GI50: 5.29
Cell line BT474, value is the negative log10 of mol/L
  GI50: 5.34
Cell line BT483, value is the negative log10 of mol/L
  GI50: 4.18
Cell line CAMA1, value is the negative log10 of mol/L
  GI50: 6.27
Cell line HCC38, value is the negative log10 of mol/L
  GI50: 5.85
Cell line HCC70, value is the negative log10 of mol/L
  GI50: 5.98
Cell line HCC1187, value is the negative log10 of mol/L
  GI50: 6.23
Cell line HCC1419, value is the negative log10 of mol/L
  GI50: 3.88
Cell line HCC1428, value is the negative log10 of mol/L
  GI50: 5.85
Cell line HCC1500, value is the negative log10 of mol/L
  GI50: 5.74
Cell line HCC1806, value is the negative log10 of mol/L
  GI50: 5.92
Cell line HCC1937, value is the negative log10 of mol/L
  GI50: 3.88
Cell line HCC1954, value is the negative log10 of mol/L
  GI50: 6.30
Cell line HCC2185, value is the negative log10 of mol/L
  GI50: 6.63
Cell line HCC3153, value is the negative log10 of mol/L
  GI50: 5.95
Cell line LY2, value is the negative log10 of mol/L
  GI50: 6.08
Cell line MCF7, value is the negative log10 of mol/L
  GI50: 6.40
Cell line MDAMB134V, value is the negative log10 of mol/L
  GI50: 6.21
Cell line MDAMB175V, value is the negative log10 of mol/L
  GI50: 5.44
Cell line MDAMB361, value is the negative log10 of mol/L
  GI50: 6.06
Cell line MDAMB415, value is the negative log10 of mol/L
  GI50: 6.30
Cell line MDAMB436, value is the negative log10 of mol/L
  GI50: 5.47
Cell line MDAMB453, value is the negative log10 of mol/L
  GI50: 6.20
Cell line MDAMB468, value is the negative log10 of mol/L
  GI50: 5.93
Cell line SKBR3, value is the negative log10 of mol/L
  GI50: 5.58
Cell line SUM52PE, value is the negative log10 of mol/L
  GI50: 6.06
Cell line SUM149PT, value is the negative log10 of mol/L
  GI50: 5.63
Cell line SUM159PT, value is the negative log10 of mol/L
  GI50: 6.16
Cell line SUM1315MO, value is the negative log10 of mol/L
  GI50: 6.11
Cell line T47D, value is the negative log10 of mol/L
  GI50: 5.29
Cell line UACC812, value is the negative log10 of mol/L
  GI50: 6.30
Cell line ZR75B, value is the negative log10 of mol/L
  GI50: 5.90
Cell line ZR751, value is the negative log10 of mol/L
  GI50: 5.90
